Measurements reported in patent US8476274B2, “Biaryl spiroaminooxazoline analogues as Alpha2C adrenergic receptor modulators” (Merck Sharp & Dohme Corp., priority 2008, dated 2013).

Target: T1, α2C receptor (Homo sapiens, UniProt P18825)
T1 sequence (P18825 1-462): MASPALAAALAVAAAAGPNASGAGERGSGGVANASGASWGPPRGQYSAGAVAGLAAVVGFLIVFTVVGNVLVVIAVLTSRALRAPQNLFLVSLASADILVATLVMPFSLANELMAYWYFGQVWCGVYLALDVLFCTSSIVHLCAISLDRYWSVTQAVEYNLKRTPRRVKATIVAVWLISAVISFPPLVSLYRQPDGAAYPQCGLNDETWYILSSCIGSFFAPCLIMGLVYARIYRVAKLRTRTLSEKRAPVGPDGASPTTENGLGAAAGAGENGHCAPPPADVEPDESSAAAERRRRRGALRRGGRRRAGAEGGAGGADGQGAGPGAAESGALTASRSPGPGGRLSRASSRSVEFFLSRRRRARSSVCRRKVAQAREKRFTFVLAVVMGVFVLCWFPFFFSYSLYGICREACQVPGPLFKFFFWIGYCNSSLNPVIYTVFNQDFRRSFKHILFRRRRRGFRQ
Assay: binding inhibition (Ki) at the α2C receptor
Conditions: compounds classed as α2C antagonists; read-out: Ki at the α2C receptor subtype
Description: A compound is defined to be an antagonist of the alpha-2C receptor if the compounds's efficacy at the α2C receptor is <30% Emax (GTPγS assay) and the binding inhibition of at the α2C receptor (Ki) is <500 nM, preferably <200 nM, and most preferably <20 nM.
Efficacy agonist activity values (Emax, GTPγS assay) for α2A and α2C were determined by following the general procedure detailed by Umland et. al (“Receptor reserve analysis of the human α2c-adrenoceptor using [^35S]GTPγS and cAMP functional assays” European Journal of Pharmacology 2001, 411, 211-221). For the purposes of the present invention, a compound is defined to be a specific or at least functionally selective agonist of the α2C receptor subtype if the compound's efficacy at the α2C receptor is ≧30% Emax (GTPγS assay) and its efficacy at the α2A receptor is 35% Emax (GTPγS assay). Additionally, for the purposes of this invention, a compound is defined to be an antagonist of the α2C receptor subtype if the compound's efficacy at the α2C receptor is <30% Emax (GTPγS assay) and the Ki at the α2C receptor subtype was <500 nM, preferentially <200 nM, and most preferentially <20 nM.

| Ki [µM] | SMILES |
| --- | --- |
| < 0.2 | Cn1nccc1-c1cccc2c1CC[C@]1(COC(N)=N1)C2 [Compound 21J] |
| < 0.2 | Cn1nccc1-c1ccc2c(c1)CC1(COC(N)=N1)C2 (racemic) [(±)-8R] |
| < 0.2 | NC1=N[C@]2(CCc3cccc(-c4cncnc4)c3C2)CO1 [Compound 149] |
| < 0.2 | Cc1noc(C)c1-c1ccc2c(c1)CC1(COC(N)=N1)C2 (racemic) [(±)-8S] |
| < 0.2 | CC1=N[C@@]2(CCc3c(cccc3-c3cncnc3)C2)CN1 [Compound 213] |
| < 0.2 | NC1=NC2(CO1)Cc1ccc(-c3cccnc3)cc1C2 (racemic) [(±)-8I] |
| < 0.2 | Cc1noc(C)c1-c1cccc2c1CC1(COC(N)=N1)C2 (racemic) [(±)-50M] |
| < 0.2 | Cc1n[nH]c(C)c1-c1ccc2c(c1)CC1(CC2)COC(N)=N1 (racemic) [(±)-101] |
| < 0.2 | NC1=N[C@]2(CCc3c(cccc3-c3cncs3)C2)CO1 [Compound 119] |
| < 0.2 | NC1=NC2(CO1)Cc1ccc(-c3ccccc3)cc1C2 (racemic) [(±)-8E] |
| < 0.2 | COc1cncc(-c2cccc3c2CC2(CC3)COC(N)=N2)c1 (racemic) [(±)-112] |
| < 0.2 | NC1=NC2(CCc3c(cccc3-c3cncs3)C2)CO1 (racemic) [(±)-129] |
| < 0.2 | NC1=NC2(CCc3cccc(-c4ccccc4)c3C2)CO1 (racemic) [(±)-1G] |
| < 0.2 | Cc1ccncc1-c1cccc2c1C[C@@]1(CC2)COC(N)=N1 [Compound 151] |
| < 0.2 | NC1=NC2(CO1)Cc1cccc(-c3cn[nH]c3)c1C2 (racemic) [(±)-50K] |
| < 0.2 | NC1=NC2(CCO1)CCc1c(cccc1-c1cncnc1)C2 (racemic) [(±)-57] |
| < 0.2 | COc1ncc(-c2cccc3c2CCC2(COC(N)=N2)C3)cn1 (racemic) [(±)-133] |
| < 0.2 | NC1=N[C@@]2(CCc3c(cccc3-c3ccco3)C2)CN1 [Compound 238] |
| < 0.2 | CN(C)c1ncc(-c2cccc3c2CC2(CC3)COC(N)=N2)cn1 (racemic) [(±)-3] |

| Ki [µM] | SMILES |
| --- | --- |
| < 0.2 | NC1=NC2(CO1)Cc1ccc(-c3cncnc3)cc1C2 (racemic) [(±)-8] |
| < 0.2 | Cc1ncnc(C)c1-c1ccc2c(c1)CC1(CC2)COC(N)=N1 (racemic) [(±)-10B] |
| < 0.2 | CC1CC2(COC(N)=N2)Cc2cccc(-c3cncnc3)c21 (racemic) [(±)-58] |
| < 0.2 | N#Cc1cccc(-c2cccc3c2CC2(CC3)COC(N)=N2)c1 (racemic) [(±)-6J] |
| < 0.2 | NC1=N[C@@]2(CCc3cccc(-c4cccnc4)c3C2)CO1 [Compound 145] |
| < 0.2 | NC1=N[C@@]2(CCc3c(cccc3-c3ccoc3)C2)CO1 [Compound 21I] |
| < 0.2 | NC1=N[C@]2(CCc3cc(Br)ccc3C2)CO1 (racemic) [(±)-340] |
| < 0.2 | NC1=N[C@@]2(CCc3ccc(-c4cncnc4)cc3C2)CO1 [Compound 142] |
| < 0.2 | NC1=N[C@@]2(CCc3cccc(-c4ccccc4)c3C2)CO1 [Compound 143] |
| < 0.2 | Cc1n[nH]c(C)c1-c1cccc2c1CC1(CC2)COC(N)=N1 (racemic) [(±)-114] |
| < 0.2 | NC1=NC2(CCc3ccc(-c4cccnn4)cc3C2)CO1 (racemic) [(±)-11] |
| < 0.2 | COc1ccc(-c2cncnc2)c2c1CCC1(COC(N)=N1)C2 (racemic) [(±)-16] |
| < 0.2 | Cc1n[nH]c(C)c1-c1cccc2c1CC1(COC(N)=N1)C2 (racemic) [(±)-50L] |
| < 0.2 | NC1=N[C@@]2(CCc3c(cccc3-c3cccnc3)C2)CO1 [Compound 21K] |
| < 0.2 | Cn1nccc1-c1cccc2c1CC1(CC2)COC(N)=N1 (racemic) [(±)-6L] |
| < 0.2 | Cc1ccncc1-c1cccc2c1C[C@]1(CC2)COC(N)=N1 [Compound 150] |
| < 0.2 | Cc1noc(C)c1-c1cccc2c1CC1(CC2)COC(N)=N1 (racemic) [(±)-113] |
| < 0.2 | N#Cc1ccc(-c2cccc3c2CC2(CC3)COC(N)=N2)cc1 (racemic) [(±)-6K] |
